Assay results: US11623927B2, “Substituted [1,2,4]triazolo[1,5-a]pyrimidines for stabilizing microtubules” (THE TRUSTEES OF THE UNIVERSITY OF PENNSYLVANIA, priority 2018, dated 2023)

Legend:
[1] = tested on: MTs; conditions: in words; versus vincristine, taxol, colchicine; cited from earlier work
[2] = tested on: MTs; conditions: in words; cited from earlier work
[3] = tested on: total α-tubulin; assay: cell-based MT assay: total α-tubulin by ELISA in cell lysates; conditions: for Total α-Tubulin: 4 h incubation, ELISA, relative level, average and SD of triplicate; for effect on total tubulin: in words, see FIG. 1 (compound 22, HEK-293 cells, 4 h)
Description: (§1) The compounds where then evaluated in a cell-based MT assay as described in Kovalevich, Characterization of brain-penetrant pyrimidine-containing molecules with differential microtubule-stabilizing activities developed as potential therapeutic agents for Alzheimer's disease and related tauopathies. J. Pharmacol. Exp. Ther., 2016, 357, 432-50. In summary, acetylated α-tubulin and total α-tubulin levels were determined by ELISA in cell lysates after 4 h of incubation with test compound at either 1 or 10 μM. See, Table 1.

[4] = tested on: acetylated α-tubulin; assay: cell-based MT assay: acetylated α-tubulin by ELISA in cell lysates; conditions: for Acetylated α-Tubulin: 4 h incubation, ELISA, relative level, average and SD of triplicate; for relative activity in the cell-based MT assay / shape of dose-response: in words; for relative activity in the cell-based MT assay: comparison among tested compounds; for shape of dose-response: see FIG. 1 (compound 22, HEK-293 cells, 4 h)
Description: as §1

Compound | Total α-Tubulin ([3]; 10 μM test compound) | effect on total tubulin [3] | relative activity in the cell-based MT assay [4] | shape of dose-response [4] | further results
CNCCCOc1cc(F)c(-c2c(Cl)nc3ncnn3c2N[C@@H](C)C(F)(F)F)c(F)c1 [Cevipabulin (1), Cevipabulin] |  |  |  |  | competition for binding to MTs [1]: competes with vincristine but not taxol or colchicine
CO[C@H]1C[C@H]2CC[C@@H](C1)N2c1c(-c2c(F)cc(F)cc2F)c(Cl)nc2ncnn12 [Compound 2, reference compound] |  |  |  |  | binding to MTs versus unpolymerized tubulin heterodimers [2]: binds exclusively to MTs and not to unpolymerized tubulin heterodimers; Total α-Tubulin ([3]; 1 μM test compound): 1.12 ± 0.08
C[C@H](Nc1c(-c2c(F)cc(OCCCNC(=O)c3ccc(C4(C(F)(F)F)N=N4)cc3)cc2F)c(Cl)nc2ncnn12)C(F)(F)F [Compound 11, (S)—N-(3-(4-(5-chloro-7-((1,1,1-trifluoropropan-2-yl)amino)-[1,2,4]triazolo[1,5-a]pyrimidin-6-yl)-3,5-difluorophenoxy)propyl)-4-(3-(trifluoromethyl)-3H-diazirin-3-yl)benzamide] | 0.88 ± 0.05 |  |  |  | Acetylated α-Tubulin ([4]; 1 μM test compound): 1.30 ± 0.28
C[C@H](Nc1c(-c2c(F)cc(F)cc2F)c(Cl)nc2ncnn12)C1(C)N=N1 [Compound 14, (S)-5-chloro-N-(1-(3-methyl-3H-diazirin-3-yl)ethyl)-6-(2,4,6-trifluorophenyl)-[1,2,4]triazolo[1,5-a]pyrimidin-7-amine] | 0.94 ± 0.02 |  |  |  | 
C[C@@H](Nc1c(-c2c(F)cc(OCCCN(C)C)cc2F)c(Cl)nc2ncnn12)C1(C)N=N1 [Compound 21, (R)-5-chloro-6-(4-(3-(dimethylamino)propoxy)-2,6-difluorophenyl)-N-(1-(3-methyl-3H-diazirin-3-yl)ethyl)-[1,2,4]triazolo[1,5-a]pyrimidin-7-amine] |  | profound loss of total tubulin in a dose-dependent manner | most active | bell-shaped dose-response | Acetylated α-Tubulin ([4]; 10 μM test compound): 0.93 ± 0.03
CN(C)CCCOc1cc(F)c(-c2c(Cl)nc3ncnn3c2NCC2(C)N=N2)c(F)c1 [Compound 22, 5-chloro-6-(4-(3-(dimethylamino)propoxy)-2,6-difluorophenyl)-N-((3-methyl-3H-diazirin-3-yl)methyl)-[1,2,4]triazolo[1,5-a]pyrimidin-7-amine] |  | profound loss of total tubulin in a dose-dependent manner | most active | bell-shaped dose-response | 
